Measurements: patent US4883800A, “Quinazoline derivatives and process for their production” (Fujisawa Pharmaceutical Co., Ltd., priority 1985, dated 1989)
pIC50: −log10 of the molar value.

What was measured:
[1] = biological target: T1, aldose reductase (Oryctolagus cuniculus, UniProt P15122); assay: Enzymatic assay method: aldose reductase inhibition (in vitro test); assay type: biochemical; conditions: rabbit lens enzyme; D,L-glyceraldehyde, NADPH; 35° C., 2 minutes; pH 6.2 buffer; read-out: IC50: concentration at which 50% of the aldose reductase activity is inhibited
T1 construct: The supernatant was dialyzed against 2 liters of 0.05M of saline solution and the dialyzed solution was used as the enzyme solution; from tissue; host or cells: rabbit eye lens, 10,000 G supernatant of homogenate, dialyzed
Description: (1) Enzymatic assay method:
0.5 M Phosphate buffer (pH 6.2)
2.0 M Lithium sulfate 0.2 ml
The compound of this invention mentioned
(dissolved in physiological saline
Enzyme solution [aldose reductase solution,
prepared as described below (2)]
60 mM D,L-glyceraldehyde 0.05 ml
2.5 mM Nicotinamide adenine
dinucleotide phosphate (reduced form)
The above reactants were mixed and reacted at 35° C. for 2 minutes and the decrease in amount of NADPH was measured with an Automatic Reaction Rate Analyzer Model LKB-8600 (Trademark, made by LKB Producter A.B.). The enzyme activity at a change in absorbance of 0.001 per minute was taken as unity.
(2) Method for preparing an enzyme solution
Rabbit eyes were enucleated and the lenses were collected. The lenses were homogenized with 3 volumes of distilled water at 4° C. (All the subsequent procedures were also performed at 4° C.) and centrifuged at 10,000 G for 60 minutes. The supernatant was dialyzed against 2 liters of 0.05M of saline solution and the dialyzed solution was used as the enzyme solution.
Each IC50 value (M) represents the concentration of the compounds of this invention at which 50% of the aldose reductase activity is inhibited.

[2] = system: sorbitol accumulation in sciatic nerve; assay: Inhibitory effect of drug on sorbitol accumulation in sciatic nerve (in vivo test); parameters: species or system Male Sprague-Dawley rats (streptozotocin-induced diabetic); conditions: 32 mg/kg, oral, once a day for five days; 6 hours after final administration; streptozotocin-diabetic rats
Description: Inhibitory effect of drug on sorbitol accumulation in sciatic nerve:
Male Sprague-Dawley rats (6 weeks old) were fasted for 24 hours and then made diabetic by the intraperitoneal injection (2 ml/kg) of streptozotocin (75 mg/kg) dissolved in 2 mM citrate buffer (pH 4.5).
Seven days after streptozotocin injection, blood glucose value was measured by taking blood from tail vein. Rats with blood glucose value of >300 mg/dl were used as streptozotocin-induced diabetic animals.
Diabetic animals were divided at random into two groups (group (A) and group (B)).
Drug was suspended in 0.5% aqueous methylcellulose solution and orally administered to each rat in group (A) once a day for five days [hereinafter referred to as drug-treated diabetic rats].
Each of rats in group (B) and of normal rats was given the vehicle (0.5% aqueous methylcellulose solution) [hereinafter referred to as untreated diabetic rats and control rats, respectively].
Six hours after final administration of drug or vehicle, animals were killed and sorbitol content in sciatic nerve was assayed. Inhibitory percent of drug on sorbitol accumulation in sciatic nerve was calculated as follows. [formula]
S: Sorbitol content in sciatic nerve of untreated diabetic rats.
SD : Sorbitol content in sciatic nerve of drug-treated diabetic rats.
N: Sorbitol content in sciatic nerve of control rats.

| pIC50 [1] | Compound | I: Inhibitory percent on sorbitol accumulation in sciatic nerve [2] [%] |
| --- | --- | --- |
| 8.27 | O=C(O)Cn1c(=O)n(Cc2ccc(Cl)c(Cl)c2)c(=O)c2ccccc21 [Compound A, 2-[3-(3,4-Dichlorobenzyl)-1,2,3,4-tetrahydro-2,4-dioxoquinazolin-1-yl]acetic acid] |  |
| 8.32 | O=C(O)Cn1c(=O)n(Cc2ccc(Br)cc2F)c(=O)c2ccccc21 [Compound B, 2-[3-(4-Bromo-2-fluorobenzyl)-1,2,3,4-tetrahydro-2,4-dioxoquinazolin-1-yl]acetic acid] |  |
| 8.27 | COc1ccc2c(=O)n(Cc3ccc(Br)cc3F)c(=O)n(CC(=O)O)c2c1 [Compound C, 2-[3-(4-Bromo-2-fluorobenzyl)-1,2,3,4-tetrahydro-7-methoxy-2,4-dioxoquinazolin-1-yl]acetic acid] |  |
| 8.28 | O=C(O)Cn1c(=O)n(Cc2ccc(I)cc2F)c(=O)c2ccccc21 [Compound D, 2-[3-(2-Fluoro-4-iodobenzyl)-1,2,3,4-tetrahydro-2,4-dioxoquinazolin-1-yl]acetic acid] | 101 |
| 8.51 | O=C(O)Cn1c(=O)n(Cc2ccc(Br)cc2F)c(=O)c2ccc(Br)cc21 [Compound E, 2-[7-Bromo-3-(4-bromo-2-fluorobenzyl)-1,2,3,4-tetrahydro-2,4-dioxoquinazolin-1-yl]acetic acid] | 103 |
|  | O=C(O)Cn1c(=O)n(Cc2ccc(Br)cc2F)c(=O)c2ccc(Cl)cc21 [Compound F, 2-[3-(4-Bromo-2-fluorobenzyl)-7-chloro-1,2,3,4-tetrahydro-2,4-dioxoquinazolin-1-yl]acetic acid] | 99 |
